In PMC6390472, “‘Second-generation’ 1,2,3-triazole-based inhibitors of Porphyromonas gingivalis adherence to oral streptococci and biofilm formation” (MedChemComm, 2019):

Tested on: P. gingivalis adherence to S. gordonii
Experiment: Biofilm model of P. gingivalis adherence to S. gordonii (confocal, green/red fluorescence ratio)
Type: cell-based, P. gingivalis ATCC33277 / S. gordonii DL-1
Conditions: inhibition of P. gingivalis adherence to S. gordonii; concentration that reduced ratio of green to red fluorescence by 50%; tested 0–60 μM
Experimental: P. gingivalis ATCC33277 was grown in reduced trypticase soy broth (Difco) supplemented with 0.5 percent yeast extract, 1 μg mL^–1 menadione, and 5 μg mL^–1 hemin. Twenty five milliliters of medium were reduced for 24 h under anaerobic conditions by equilibrating in an atmosphere consisting of 10% CO2, 10% H2, and 80% N2. Following equilibration, P. gingivalis was inoculated in the medium and grown for 48 h at 37 °C under anaerobic conditions. S. gordonii DL-1 (1) was cultured aerobically without shaking in brain heart infusion (BHI) broth supplemented with 1 percent yeast extract for 16 hours at 37 °C. For some compounds that inhibited P. gingivalis adherence to S. gordonii, we determined their effect on planktonic growth of P. gingivalis and S. gordonii. The appropriate growth medium (10 ml) was supplemented with 10 μl of a 40 mM compound stock solution in DMSO. After inoculation, broth cultures were incubated as described above and compared to cultures grown in medium that was supplemented only with 0.1% DMSO. The cell density of each culture was determined by measuring the optical density at 600 nm (O.D.600nm) and the percent growth inhibition/stimulation was calculated using the following equation: [(O.D.600nm of the control/O.D.600nm of the culture grown in the presence of compound) – 1] × 100.
Two species biofilms were formed essentially as previously described.[39] To prepare bacterial cells for biofilm culture, 10 ml of an overnight S. gordonii culture was centrifuged at 5600 rpm for 5 min and the cell pellet was suspended in 1 mL sterile PBS. Subsequently, 20 μL of 5 mg ml^–1 hexidium iodide (Molecular Probes) was added to the cell suspension and incubated for 15 min with gentle shaking at room temperature in the dark. The labeled cells were centrifuged as described above, washed with phosphate-buffered saline (10 mM Na2HPO4, […], […], and 2.7 mM KCl, pH 7.2; [PBS]) and the cell pellet was suspended in PBS at a final O.D.600nm of 0.8. Similarly, 10 mL of a 48 h culture of P. gingivalis was centrifuged at 5600 rpm for 15 min, the cell pellet was suspended in 1 mL PBS and 20 μL of 5(6)-carboxyfluorescein N-hydroxysuccinimide ester (4 mg ml^–1, Molecular Probes, Inc.) was added. After incubation for 30 min with gentle shaking at room temperature in the dark, the suspension was centrifuged and washed as described above and suspended in PBS at a final O.D.600nm of 0.4. For biofilm cultures, 1 mL of labeled S. gordonii cells was added to each well of a 12-well microtiter plate (Greiner Bio-one) containing a circular coverslip (Fisher brand) and incubated in an anaerobic chamber with rotary shaking for 24 h at 37 °C. Unbound cells were removed by aspiration and 1 ml of labeled P. gingivalis cells containing the desired concentration of test compound was added and incubated under anaerobic conditions for 22 h at 37 °C. Test compounds were dissolved in dimethyl sulfoxide (DMSO) to generate 1000× stock solutions and were routinely tested over a final concentration range of 0–60 μM. 1 μL of the appropriate stock solution was added to each 1 mL aliquot of labeled P. gingivalis cells and incubated for 30 min at room temperature prior to adding the suspension to the microtiter plate wells. For control biofilms, 1 μL of DMSO was added to 1 mL of labeled P. gingivalis and incubated as described above.
To visualize P. gingivalis/S. gordonii biofilms, unbound P. gingivalis cells were removed by aspiration and coverslips were washed once with PBS. Biofilms were fixed by incubating the coverslips with 1 mL of 4% paraformaldehyde for 5 min followed by two washes with PBS. The coverslips were then removed, placed face down on a glass microscope slide containing a drop of antifade reagent (Life Technology) and sealed with nail polish. […]

Row | SMILES | IC50 [µM]
1 | [O-][S+](Cc1nc(-c2ccccc2)c(-c2ccccc2)o1)c1ccc(-n2cc(-c3cccnc3)nn2)cc1 (stereo not drawn) [Compound 28, 4,5-Diphenyl-2-(((4-(4-(pyridin-3-yl)-1H-1,2,3-triazol-1-yl)phenyl)sulfinyl)methyl) oxazole] | > 60
2 | [O-][S+](Cc1nc(-c2ccccc2)c(-c2ccccc2)o1)c1ccc(-n2cc(-c3ccc(F)cc3)nn2)cc1 (stereo not drawn) [Compound 29] | > 60
3 | [O-][S+](Cc1nc(-c2ccccc2)c(-c2ccccc2)o1)c1ccc(-n2cc(-c3cccc(F)c3)nn2)cc1 (stereo not drawn) [Compound 30] | 47.3
4 | COc1ccccc1-c1cn(-c2ccc([S+]([O-])Cc3nc(-c4ccccc4)c(-c4ccccc4)o3)cc2)nn1 (stereo not drawn) [Compound 31] | > 60
5 | [O-][S+](Cc1nc(-c2ccccc2)c(-c2ccccc2)o1)c1ccc(-n2cc(-c3ccccc3C(F)(F)F)nn2)cc1 (stereo not drawn) [Compound 32] | > 60
6 | COc1ccc2cc(-c3cn(-c4ccc([S+]([O-])Cc5nc(-c6ccccc6)c(-c6ccccc6)o5)cc4)nn3)ccc2c1 (stereo not drawn) [Compound 33] | > 60
7 | CCCCCc1ccc(-c2cn(-c3ccc([S+]([O-])Cc4nc(-c5ccccc5)c(-c5ccccc5)o4)cc3)nn2)cc1 (stereo not drawn) [Compound 34] | > 60
8 | [O-][S+](Cc1nc(-c2ccccc2)c(-c2ccccc2)o1)c1ccc(-n2cc(-c3ccc(Oc4ccccc4)cc3)nn2)cc1 (stereo not drawn) [Compound 35] | > 60
9 | [O-][S+](Cc1nc(-c2ccccc2)c(-c2ccccc2)o1)c1ccc(-n2cc(-c3cc(C(F)(F)F)cc(C(F)(F)F)c3)nn2)cc1 (stereo not drawn) [Compound 36] | > 60
10 | O=S(=O)(Cc1nc(-c2ccccc2)c(-c2ccccc2)o1)c1ccc(-n2cc(-c3cccnc3)nn2)cc1 [Compound 37] | > 60
11 | O=S(=O)(Cc1nc(-c2ccccc2)c(-c2ccccc2)o1)c1ccc(-n2cc(-c3ccc(F)cc3)nn2)cc1 [Compound 38] | 15.7
12 | O=S(=O)(Cc1nc(-c2ccccc2)c(-c2ccccc2)o1)c1ccc(-n2cc(-c3cccc(F)c3)nn2)cc1 [Compound 39] | 33.6
13 | COc1ccccc1-c1cn(-c2ccc(S(=O)(=O)Cc3nc(-c4ccccc4)c(-c4ccccc4)o3)cc2)nn1 [Compound 40] | 13.1
14 | O=S(=O)(Cc1nc(-c2ccccc2)c(-c2ccccc2)o1)c1ccc(-n2cc(-c3ccccc3C(F)(F)F)nn2)cc1 [Compound 41] | > 60
15 | COc1ccc2cc(-c3cn(-c4ccc(S(=O)(=O)Cc5nc(-c6ccccc6)c(-c6ccccc6)o5)cc4)nn3)ccc2c1 [Compound 42] | > 60
16 | CCCCCc1ccc(-c2cn(-c3ccc(S(=O)(=O)Cc4nc(-c5ccccc5)c(-c5ccccc5)o4)cc3)nn2)cc1 [Compound 43] | 36.6
17 | O=S(=O)(Cc1nc(-c2ccccc2)c(-c2ccccc2)o1)c1ccc(-n2cc(-c3ccc(Oc4ccccc4)cc3)nn2)cc1 [Compound 44] | 16.5
18 | O=S(=O)(Cc1nc(-c2ccccc2)c(-c2ccccc2)o1)c1ccc(-n2cc(-c3cc(C(F)(F)F)cc(C(F)(F)F)c3)nn2)cc1 [Compound 45] | 38.5
19 | [O-][S+](Cc1nc(-c2ccc(F)cc2)c(-c2ccc(F)cc2)o1)c1ccc(-n2cc(-c3cccc(F)c3)nn2)cc1 (stereo not drawn) [Compound 46] | 5.3
20 | [O-][S+](Cc1nc(-c2ccc(F)cc2)c(-c2ccc(F)cc2)o1)c1ccc(-n2cc(-c3ccc(F)cc3)nn2)cc1 (stereo not drawn) [Compound 47] | 35.9
21 | COc1ccccc1-c1cn(-c2ccc([S+]([O-])Cc3nc(-c4ccc(F)cc4)c(-c4ccc(F)cc4)o3)cc2)nn1 (stereo not drawn) [Compound 48] | 7.2
22 | [O-][S+](Cc1nc(-c2ccc(Cl)cc2)c(-c2ccc(Cl)cc2)o1)c1ccc(-n2cc(-c3cccc(F)c3)nn2)cc1 (stereo not drawn) [Compound 49] | 15.1
23 | [O-][S+](Cc1nc(-c2ccc(Cl)cc2)c(-c2ccc(Cl)cc2)o1)c1ccc(-n2cc(-c3ccc(F)cc3)nn2)cc1 (stereo not drawn) [Compound 50] | 39.8

Row | SMILES | IC50 [µM]
24 | COc1ccccc1-c1cn(-c2ccc([S+]([O-])Cc3nc(-c4ccc(Cl)cc4)c(-c4ccc(Cl)cc4)o3)cc2)nn1 (stereo not drawn) [Compound 51] | 10.2
25 | O=S(=O)(Cc1nc(-c2ccc(F)cc2)c(-c2ccc(F)cc2)o1)c1ccc(-n2cc(-c3cccc(F)c3)nn2)cc1 [Compound 52] | 40
26 | O=S(=O)(Cc1nc(-c2ccc(F)cc2)c(-c2ccc(F)cc2)o1)c1ccc(-n2cc(-c3ccc(F)cc3)nn2)cc1 [Compound 53] | 40
27 | O=S(=O)(Cc1nc(-c2ccc(Cl)cc2)c(-c2ccc(Cl)cc2)o1)c1ccc(-n2cc(-c3cccc(F)c3)nn2)cc1 [Compound 55] | 18.2
28 | CCN(CC)c1nc(-c2cn(-c3cccc(-c4nc(-c5ccccc5)c(-c5ccccc5)o4)c3)nn2)nc(N(CC)CC)n1 [Compound 90] | 20.7
29 | CCN(CC)c1nc(-c2cn(-c3ccc(-c4nc(-c5ccccc5)c(-c5ccccc5)o4)cc3)nn2)nc(N(CC)CC)n1 [Compound 91] | > 60
30 | CCN(CC)c1nc(-c2cn(-c3cccc(-c4nc(-c5ccc(F)cc5)c(-c5ccc(F)cc5)o4)c3)nn2)nc(N(CC)CC)n1 [Compound 92] | > 60
31 | CCN(CC)c1nc(-c2cn(-c3cccc(-c4nc(-c5ccc(Cl)cc5)c(-c5ccc(Cl)cc5)o4)c3)nn2)nc(N(CC)CC)n1 [Compound 94] | 16
32 | CCN(CC)c1nc(-c2cn(-c3cccc(-c4nc(-c5ccc(OC)cc5)c(-c5ccc(OC)cc5)o4)c3)nn2)nc(N(CC)CC)n1 [Compound 96] | > 60
33 | CCN(CC)c1nc(-c2cn(-c3ccc(-c4nc(-c5ccc(OC)cc5)c(-c5ccc(OC)cc5)o4)cc3)nn2)nc(N(CC)CC)n1 [Compound 97] | 36.6
34 | CCN(CC)c1nc(-c2cn(-c3cccc(-c4nc(-c5ccco5)c(-c5ccco5)o4)c3)nn2)nc(N(CC)CC)n1 [Compound 98] | > 60
35 | CCN(CC)c1nc(-c2cn(-c3ccc(-c4nc(-c5ccco5)c(-c5ccco5)o4)cc3)nn2)nc(N(CC)CC)n1 [Compound 99] | > 60
36 | Fc1ccccc1Nc1nc(Nc2ccccc2F)nc(-c2cn(-c3cccc(-c4nc(-c5ccccc5)c(-c5ccccc5)o4)c3)nn2)n1 [Compound 100] | 9.6
37 | Fc1ccccc1Nc1nc(Nc2ccccc2F)nc(-c2cn(-c3ccc(-c4nc(-c5ccccc5)c(-c5ccccc5)o4)cc3)nn2)n1 [Compound 101] | > 60
38 | Fc1ccccc1Nc1nc(Nc2ccccc2F)nc(-c2cn(-c3cccc(-c4nc(-c5ccc(Cl)cc5)c(-c5ccc(Cl)cc5)o4)c3)nn2)n1 [Compound 104] | 33.8
39 | Fc1ccccc1Nc1nc(Nc2ccccc2F)nc(-c2cn(-c3ccc(-c4nc(-c5ccc(Cl)cc5)c(-c5ccc(Cl)cc5)o4)cc3)nn2)n1 [Compound 105] | > 60
40 | COc1ccc(-c2nc(-c3cccc(-n4cc(-c5nc(Nc6ccccc6F)nc(Nc6ccccc6F)n5)nn4)c3)oc2-c2ccc(OC)cc2)cc1 [Compound 106] | > 60
41 | COc1ccc(-c2nc(-c3ccc(-n4cc(-c5nc(Nc6ccccc6F)nc(Nc6ccccc6F)n5)nn4)cc3)oc2-c2ccc(OC)cc2)cc1 [Compound 107] | 40
42 | Fc1ccccc1Nc1nc(Nc2ccccc2F)nc(-c2cn(-c3cccc(-c4nc(-c5ccco5)c(-c5ccco5)o4)c3)nn2)n1 [Compound 108] | > 60
43 | Fc1ccccc1Nc1nc(Nc2ccccc2F)nc(-c2cn(-c3ccc(-c4nc(-c5ccco5)c(-c5ccco5)o4)cc3)nn2)n1 [Compound 109] | > 60
44 | Fc1ccc(Nc2nc(Nc3ccc(F)cc3)nc(-c3cn(-c4ccccc4-c4nc(-c5ccccc5)c(-c5ccccc5)o4)nn3)n2)cc1 [Compound 110] | > 60
45 | Fc1ccc(Nc2nc(Nc3ccc(F)cc3)nc(-c3cn(-c4ccc(-c5nc(-c6ccccc6)c(-c6ccccc6)o5)cc4)nn3)n2)cc1 [Compound 112] | > 60
